Source: publication PMC12144822 (Parasites & Vectors, 2025)

Tests used:
Assay type in all cases: cell-based
Hsa-GABA α5β2γ2 = Hsa-GABA α5β2γ2 (Homo sapiens, UniProt P18507+P31644+P47870); assay: Two-electrode voltage-clamp concentration-activation by the natural agonist, receptor expressed in Xenopus oocytes; design: The corresponding open reading frames (ORF) were cloned into the pT7-TS transcription vector; expressed in transfected cells; host or cells: Xenopus laevis oocytes, cRNA injection; conditions: concentration-activation curve
Text: (§1) Complementary DNA (cDNA) encoding for the human GABAA proteins α1 (NM_001127645.2), α2 (NM_001377146.1), α3 (KJ620007.1), α4 (NM_000809.4), α5 (NM_000810.4), α6 (NM_000811.3), β2 (XM_054352312.1), β3 (M82919.1), γ2 (NM_000816.3) and δ (NM_000815.5) were ordered from Genewiz (www.genewiz.com; Leipzig, Germany); for each gene, GenBank accession numbers are provided in parentheses. When necessary, silent mutations were introduced to break NheI or XhoI internal restriction sites. The corresponding open reading frames (ORF) were cloned into the pT7-TS transcription vector (introducing X. laevis β-globin untranslated cDNA to the 5’ and 3’ ends of the gene), following a procedure described in detail in a previous publication. The same process was used to obtain cDNA encoding canine GABAA proteins α4 (XM_025435560.1), α6 (XM_022417729.1) and δ (XM_005620414.2). Gene α2 (XM_025435664.1), α3 (XM_549343.5), α5 (XM_545805.6) and β3 (XM_025437408.1) were obtained by PCR; GenBank reference accession numbers are provided in parentheses. RNA extraction, cDNA synthesis and PCR amplification were performed as described previously. Total RNA was extracted from a piece of dog brain (Beagle breed; Canis lupus familiaris) from which 1 µg of total RNA (DNase-treated) was reverse-transcribed to cDNA using a (dT)30 primer and SuperScript III Reverse Transcriptase (Invitrogen, Thermo Fisher Scientific, Waltham, MA, USA). Gene-specific primers (Additional file 1: Table S1) were designed using Primer 3 software (http://frodo.wi.mit.edu/). […] The cycling conditions were: 98 °C for 30 s; then 38 cycles of 98 °C for 10 s, 58 °C for 30 s and 72 °C for 90 s; followed by 72 °C for 5 min. The dog subunits α1 (XM_546261.5), β2 (XM_014113040.1) and γ2 (XM_546259.5) had been previously amplified and described in a study by Rufener et al..
(§2) Defoliculated X. laevis oocytes ordered from Ecocyte Bioscience (Dortmund, Germany) were microinjected with 15–25 nl of cRNA solution (5–50 ng/μl) per oocyte using an automated injector (Roboinject; Multi Channel Systems MCS GmbH, Reutlingen, Germany) and then incubated at 18 °C. All recordings were made 1–5 days post-cRNA injection and were performed at 18 ± 4 °C. Cells were superfused with OR2 medium (NaCl 88 mM, KCl 2.5 mM, HEPES 5 mM, CaCl2•2H2O 1.8 mM, MgCl2•7H2O 1.0 mM, pH 7.4). To ensure that γ2 subunits were integrated into the heteropentamers, we injected fivefold more γ2 than the other subunit cRNAs. Diazepam is a positive allosteric modulator of GABAR only if γ2 subunits are present. Therefore, we used this method to confirm the presence of human and dog GABAA receptor containing the γ2 subunit.
(§3) Voltage-clamp measurements were performed as described by Rufener et al.. Oocytes were impaled with two electrodes filled with 3 M KCl, and their membrane potentials were maintained at − 80 mV throughout the experiment. […] Recordings were performed using an automated process equipped with standard two-electrode voltage-clamp configuration (HiClamp system; Multi Channel Systems MCS GmbH). Data were filtered at 10 Hz, captured at 100 Hz and analyzed using proprietary data acquisition and analysis software in MATLAB (Mathworks Inc., Natick, MA, USA). Additional analyses were performed using Excel (Microsoft, Redmond, WA, USA). […] Graphing the maximum inward currents against the log of agonist concentration produces typical concentration-activation and concentration-inhibition curves, which can be accurately described using individual Hill equations.

Hsa-GABA α6β2γ2 = Hsa-GABA α6β2γ2 (Homo sapiens, UniProt P18507+P47870+Q16445); assay: as above; design: The corresponding open reading frames (ORF) were cloned into the pT7-TS transcription vector; expressed in transfected cells; host or cells: Xenopus laevis oocytes, cRNA injection; conditions: concentration-activation curve
Text: as §1, §2, §3

Hsa-GABA α1β2γ2 = Hsa-GABA α1β2γ2 (Homo sapiens, UniProt P14867+P18507+P47870); assay: as above; design: The corresponding open reading frames (ORF) were cloned into the pT7-TS transcription vector; expressed in transfected cells; host or cells: Xenopus laevis oocytes, cRNA injection; conditions: concentration-activation curve
Text: as §1, §2, §3

Hsa-GABA α2β3γ2 = Hsa-GABA α2β3γ2 (Homo sapiens, UniProt P18507+P28472+P47869); assay: as above; design: The corresponding open reading frames (ORF) were cloned into the pT7-TS transcription vector; expressed in transfected cells; host or cells: Xenopus laevis oocytes, cRNA injection; conditions: concentration-activation curve
Text: as §1, §2, §3

Hsa-GABAR = assay: Voltage-clamp concentration-activation, summary over the six human receptors; conditions: concentration-activation curves
Procedure: as §2
Voltage-clamp measurements were performed as described by Rufener et al.. Oocytes were impaled with two electrodes filled with 3 M KCl, and their membrane potentials were maintained at − 80 mV throughout the experiment. […] Recordings were performed using an automated process equipped with standard two-electrode voltage-clamp configuration (HiClamp system; Multi Channel Systems MCS GmbH). Data were filtered at 10 Hz, captured at 100 Hz and analyzed using proprietary data acquisition and analysis software in MATLAB (Mathworks Inc., Natick, MA, USA). […]

Chain of Hsa-GABA α5β2γ2 (P31644 32-462): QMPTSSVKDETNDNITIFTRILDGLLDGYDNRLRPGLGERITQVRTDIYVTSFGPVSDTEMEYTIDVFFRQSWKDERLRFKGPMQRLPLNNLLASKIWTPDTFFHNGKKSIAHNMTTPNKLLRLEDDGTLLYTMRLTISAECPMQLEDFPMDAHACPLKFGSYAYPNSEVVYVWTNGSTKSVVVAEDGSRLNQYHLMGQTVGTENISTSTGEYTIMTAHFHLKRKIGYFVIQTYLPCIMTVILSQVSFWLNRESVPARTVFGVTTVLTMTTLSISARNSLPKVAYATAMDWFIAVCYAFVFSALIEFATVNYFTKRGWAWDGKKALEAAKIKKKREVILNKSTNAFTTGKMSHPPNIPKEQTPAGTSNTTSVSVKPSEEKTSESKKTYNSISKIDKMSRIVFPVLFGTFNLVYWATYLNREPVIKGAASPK
Chain of Hsa-GABA α5β2γ2 (P47870 26-474 isoform P47870-1 limits assumed): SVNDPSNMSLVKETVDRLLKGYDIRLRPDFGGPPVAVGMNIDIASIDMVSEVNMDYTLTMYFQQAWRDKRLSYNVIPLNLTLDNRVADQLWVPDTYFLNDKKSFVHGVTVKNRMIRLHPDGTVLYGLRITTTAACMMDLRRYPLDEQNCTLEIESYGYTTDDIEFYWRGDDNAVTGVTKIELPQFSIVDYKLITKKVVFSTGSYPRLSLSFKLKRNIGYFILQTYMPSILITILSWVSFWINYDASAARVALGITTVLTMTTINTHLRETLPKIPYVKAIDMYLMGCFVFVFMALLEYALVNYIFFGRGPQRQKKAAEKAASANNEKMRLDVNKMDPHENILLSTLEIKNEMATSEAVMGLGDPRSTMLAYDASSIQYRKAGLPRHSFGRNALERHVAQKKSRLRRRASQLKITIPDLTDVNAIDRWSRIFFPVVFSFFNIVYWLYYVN
Chain of Hsa-GABA α5β2γ2 (P18507 40-467 isoform P18507-1 limits assumed): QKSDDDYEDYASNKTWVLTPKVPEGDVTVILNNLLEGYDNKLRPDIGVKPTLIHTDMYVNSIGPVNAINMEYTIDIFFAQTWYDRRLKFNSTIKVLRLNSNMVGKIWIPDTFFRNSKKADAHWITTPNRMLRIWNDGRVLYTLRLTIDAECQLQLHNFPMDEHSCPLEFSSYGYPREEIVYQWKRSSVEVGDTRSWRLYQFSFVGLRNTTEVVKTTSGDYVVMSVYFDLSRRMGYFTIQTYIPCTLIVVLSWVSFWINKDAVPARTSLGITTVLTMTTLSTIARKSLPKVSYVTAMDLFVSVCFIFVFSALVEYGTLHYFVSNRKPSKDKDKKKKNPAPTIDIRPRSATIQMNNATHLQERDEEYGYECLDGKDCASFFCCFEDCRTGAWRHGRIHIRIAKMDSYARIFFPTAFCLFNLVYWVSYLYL
Chain of Hsa-GABA α6β2γ2 (Q16445 20-453): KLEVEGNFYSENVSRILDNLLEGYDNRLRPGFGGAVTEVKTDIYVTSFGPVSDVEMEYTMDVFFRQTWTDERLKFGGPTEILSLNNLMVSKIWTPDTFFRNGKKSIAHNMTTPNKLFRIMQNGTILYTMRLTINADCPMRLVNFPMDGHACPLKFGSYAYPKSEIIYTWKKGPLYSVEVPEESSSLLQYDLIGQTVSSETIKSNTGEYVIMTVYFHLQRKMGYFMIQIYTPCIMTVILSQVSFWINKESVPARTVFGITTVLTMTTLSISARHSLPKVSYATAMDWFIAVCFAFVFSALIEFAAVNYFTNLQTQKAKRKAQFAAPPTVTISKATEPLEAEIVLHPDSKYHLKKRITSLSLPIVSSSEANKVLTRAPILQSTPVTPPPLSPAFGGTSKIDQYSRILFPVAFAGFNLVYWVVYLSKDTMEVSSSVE
Chain of Hsa-GABA α6β2γ2 (P47870 26-474 isoform P47870-1 limits assumed): as the sequence (P47870 26-474 isoform P47870-1 limits assumed) above
Chain of Hsa-GABA α6β2γ2 (P18507 40-467 isoform P18507-1 limits assumed): as the sequence (P18507 40-467 isoform P18507-1 limits assumed) above
Chain of Hsa-GABA α1β2γ2 (P14867 28-456): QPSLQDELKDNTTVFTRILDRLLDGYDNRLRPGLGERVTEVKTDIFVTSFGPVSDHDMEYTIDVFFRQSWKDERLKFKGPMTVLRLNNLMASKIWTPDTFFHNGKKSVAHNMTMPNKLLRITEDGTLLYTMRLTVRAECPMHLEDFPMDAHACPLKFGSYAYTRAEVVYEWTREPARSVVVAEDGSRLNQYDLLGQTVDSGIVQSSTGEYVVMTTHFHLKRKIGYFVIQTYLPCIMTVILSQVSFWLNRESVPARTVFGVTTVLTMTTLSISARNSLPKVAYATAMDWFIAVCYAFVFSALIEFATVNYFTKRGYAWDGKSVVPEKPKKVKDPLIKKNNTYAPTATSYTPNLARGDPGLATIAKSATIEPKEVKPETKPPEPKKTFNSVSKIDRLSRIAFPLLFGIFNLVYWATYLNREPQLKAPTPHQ
Chain of Hsa-GABA α1β2γ2 (P47870 26-474 isoform P47870-1 limits assumed): as the sequence (P47870 26-474 isoform P47870-1 limits assumed) above
Chain of Hsa-GABA α1β2γ2 (P18507 40-467 isoform P18507-1 limits assumed): as the sequence (P18507 40-467 isoform P18507-1 limits assumed) above
Chain of Hsa-GABA α2β3γ2 (P47869 29-451): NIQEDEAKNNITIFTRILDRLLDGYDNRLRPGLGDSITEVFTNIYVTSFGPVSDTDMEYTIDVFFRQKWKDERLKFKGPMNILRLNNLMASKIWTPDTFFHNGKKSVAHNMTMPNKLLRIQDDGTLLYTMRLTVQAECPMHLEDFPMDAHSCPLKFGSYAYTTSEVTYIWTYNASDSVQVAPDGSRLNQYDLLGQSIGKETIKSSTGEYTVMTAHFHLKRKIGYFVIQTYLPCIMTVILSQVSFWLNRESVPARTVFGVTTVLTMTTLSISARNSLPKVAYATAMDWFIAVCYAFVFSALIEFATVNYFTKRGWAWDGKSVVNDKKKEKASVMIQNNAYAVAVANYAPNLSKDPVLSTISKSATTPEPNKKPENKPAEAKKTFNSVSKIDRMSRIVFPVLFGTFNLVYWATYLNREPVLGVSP
Chain of Hsa-GABA α2β3γ2 (P28472 26-473): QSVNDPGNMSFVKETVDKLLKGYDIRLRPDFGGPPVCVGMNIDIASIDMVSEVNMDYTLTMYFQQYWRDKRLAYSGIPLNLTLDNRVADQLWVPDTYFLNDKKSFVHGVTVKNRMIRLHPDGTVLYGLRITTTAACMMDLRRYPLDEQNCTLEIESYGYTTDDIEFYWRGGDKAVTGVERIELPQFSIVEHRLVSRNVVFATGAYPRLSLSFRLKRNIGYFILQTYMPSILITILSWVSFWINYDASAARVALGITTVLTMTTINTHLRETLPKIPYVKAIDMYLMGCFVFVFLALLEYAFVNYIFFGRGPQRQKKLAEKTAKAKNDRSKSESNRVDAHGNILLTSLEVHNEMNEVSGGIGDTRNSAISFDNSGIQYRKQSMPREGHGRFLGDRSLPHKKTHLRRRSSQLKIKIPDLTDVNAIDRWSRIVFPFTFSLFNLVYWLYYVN
Chain of Hsa-GABA α2β3γ2 (P18507 40-467 isoform P18507-1 limits assumed): as the sequence (P18507 40-467 isoform P18507-1 limits assumed) above

Structure (SMILES): NCCCC(=O)O [GABA, gamma-aminobutyric acid]
- nH (Hill coefficient) (Hsa-GABA α5β2γ2): 1.1
- nH (Hill coefficient) (Hsa-GABA α6β2γ2): 1.1
- nH (Hill coefficient) (Hsa-GABA α1β2γ2): 1.7
- nH (Hill coefficient) (Hsa-GABA α2β3γ2): 1.2
- Hill coefficients over the six Hsa-GABAR (Hsa-GABAR): higher than 1
